{"source": "patent US9173863B2", "about": "“Antiviral compound and COX-2 inhibitor combination therapy for functional somatic syndromes, including combination of famciclovir and celecoxib” (INNOVATIVE MED CONCEPTS, LLC, priority 2012, dated 2015)", "origin": "cited, not measured here", "test_system": "fibromyalgia patients", "settings": "valacyclovir alone", "data": [{"smiles": "CC(C)[C@H](N)C(=O)OCCOCn1cnc2c(=O)[nH]c(N)nc21", "note": "[valacyclovir]", "values": [{"measurement": "Treatment outcome in fibromyalgia patients", "result": "not successful"}]}]}
